Source: patent publication US20190335749A1, “Adjustable Release Pesticide Tablet Formulations” (priority 2018, published 2019)

Legend:
[1] = cited from earlier work
[2] = TFM release rate in flow chamber, 11 L of water per minute; assay type: physicochemical; details: flow of 11 L of water per minute; 20 g TFM; FIG. 8, FIG. 9
Excerpt: To scale up from the tablet press, a hand-driven compression clamp was assembled in a fashion to create a compressed 20 g TFM cylinder 1 inch in diameter or combination of tablets adding to 20 g total TFM. Variables investigated were matrix type (tea bag vs porous cotton mesh), tablet size, formulation, and compression strength of formulation. The resulting tablets were placed into a flow chamber with a flow of 11 L of water per minute and aliquots were taken at designated time periods to evaluate TFM release rates.
Tablets H, I and J were all prepared according to Tablet E except that increasing amounts of sand were added as a density modifier to ensure tablets remained submerged.

Row | SMILES | solubility in water [1] | TFM release rate [2]
1 | [Cu+2].[OH-].[OH-] [Copper hydroxide] | extremely low solubility | –
2 | O=[N+]([O-])c1ccc([O-])cc1C(F)(F)F.[K+] [TFM phenoxide salt] | – | releases the fastest
3 | O=C(O)COc1ccc(Cl)cc1Cl [neutral 2,4-D, 2,4-Dichlorophenoxyacetic Acid] | less water soluble | –
